From patent publication US7057052B2, “Heterocyclic quinones as pharmaceutical agents” (Duke University, priority 2002, dated 2006) come the findings set out here.

One may read the inhibition as how much of the control response was suppressed. In general, IC50 refers to the point on the concentration scale where inhibition reaches its midpoint.

What all share (format): biochemical
Experiment [1] has as its target T1, Cdc25A (Homo sapiens, UniProt P30304).
T1 sequence (P30304 1-524): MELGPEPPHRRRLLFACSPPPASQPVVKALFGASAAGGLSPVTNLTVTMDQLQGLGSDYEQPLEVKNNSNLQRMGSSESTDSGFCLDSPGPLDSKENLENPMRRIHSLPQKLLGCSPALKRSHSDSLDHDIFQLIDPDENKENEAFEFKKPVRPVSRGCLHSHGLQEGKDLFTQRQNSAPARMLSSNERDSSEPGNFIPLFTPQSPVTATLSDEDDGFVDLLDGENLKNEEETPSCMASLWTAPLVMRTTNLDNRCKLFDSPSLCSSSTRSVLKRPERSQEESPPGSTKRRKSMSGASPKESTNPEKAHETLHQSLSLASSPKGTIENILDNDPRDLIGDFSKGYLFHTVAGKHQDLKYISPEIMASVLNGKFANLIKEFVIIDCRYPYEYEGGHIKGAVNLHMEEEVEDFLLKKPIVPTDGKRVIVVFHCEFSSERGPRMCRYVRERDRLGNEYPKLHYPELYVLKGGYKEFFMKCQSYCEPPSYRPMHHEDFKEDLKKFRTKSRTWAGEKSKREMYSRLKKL
The experiment in a line: Cdc25A phosphatase inhibition screen at 50 μM. The settings on record: read-out: Percent Inhibition at 50 uM compound, Cdc25 A. Here is the method: (§1) Using procedures known to those skilled in the art, the compounds listed in Table 3 were screened against Cdc25A, Cdc25B, and Cdc25C at 50 μM. […] To analyze these effects further, the compounds were then screened against Cdc25B in a 3 pt. IC-50, using 1, 7 and 50 μM. Several of the compounds were also screened with an 8 pt. IC-50 process, using 0.1–10 μM, allowing determination of Hill slopes.

In experiment [2] the target is T2, Cdc25B (Homo sapiens, UniProt P30305).
T2 sequence (P30305 1-580): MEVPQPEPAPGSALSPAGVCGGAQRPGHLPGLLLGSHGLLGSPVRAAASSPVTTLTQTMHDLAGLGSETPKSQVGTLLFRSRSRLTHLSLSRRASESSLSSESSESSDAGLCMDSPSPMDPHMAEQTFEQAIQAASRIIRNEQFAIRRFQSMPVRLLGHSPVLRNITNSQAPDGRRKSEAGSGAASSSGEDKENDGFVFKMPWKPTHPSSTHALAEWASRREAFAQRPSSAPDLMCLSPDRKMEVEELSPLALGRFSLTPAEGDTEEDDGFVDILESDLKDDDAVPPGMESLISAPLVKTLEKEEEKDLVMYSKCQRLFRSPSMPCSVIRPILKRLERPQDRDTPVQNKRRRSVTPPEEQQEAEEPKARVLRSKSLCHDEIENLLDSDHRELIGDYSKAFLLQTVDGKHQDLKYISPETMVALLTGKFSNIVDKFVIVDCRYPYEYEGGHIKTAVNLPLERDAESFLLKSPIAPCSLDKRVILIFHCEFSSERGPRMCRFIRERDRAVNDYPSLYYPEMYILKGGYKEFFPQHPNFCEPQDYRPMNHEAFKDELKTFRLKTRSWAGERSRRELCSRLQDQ
The experiment in a line: Cdc25B phosphatase inhibition (50 μM screen, 3 pt. and 8 pt. IC-50). The settings on record: for IC50: Cdc25B, 3 pt. IC-50 using 1, 7 and 50 μM, read-out: IC50 (3 pt); for inhibition at 50 µM: read-out: Percent Inhibition at 50 uM compound, Cdc25 B. Here is the method: as §1

Experiment [3] deals with T3, Cdc25C (Homo sapiens, UniProt P30307).
T3 sequence (P30307 1-473): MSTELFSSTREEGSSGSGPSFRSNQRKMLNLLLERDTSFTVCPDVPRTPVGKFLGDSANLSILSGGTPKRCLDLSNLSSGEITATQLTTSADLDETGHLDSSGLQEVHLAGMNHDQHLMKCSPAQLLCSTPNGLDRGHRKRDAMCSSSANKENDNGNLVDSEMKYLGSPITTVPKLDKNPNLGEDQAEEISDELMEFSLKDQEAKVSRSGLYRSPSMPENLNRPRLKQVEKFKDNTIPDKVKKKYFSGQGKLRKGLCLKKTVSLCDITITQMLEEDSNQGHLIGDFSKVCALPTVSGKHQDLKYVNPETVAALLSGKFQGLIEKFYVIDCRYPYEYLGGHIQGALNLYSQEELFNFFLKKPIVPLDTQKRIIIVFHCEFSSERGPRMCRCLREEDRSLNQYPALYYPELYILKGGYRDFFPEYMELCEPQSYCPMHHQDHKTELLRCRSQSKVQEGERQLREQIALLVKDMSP
The experiment in a line: Cdc25C phosphatase inhibition screen at 50 μM. The settings on record: read-out: Percent Inhibition at 50 uM compound, Cdc25 C. Here is the method: as §1

As to `COc1cc2[nH]cc(C3=C(O)C(=O)C=C(O)C3=O)c2cc1OC` [8A, 2,5-dihydroxy-3-(5,6-dimethoxy-1H-indol-3-yl)-[1,4]-benzoquinone], the inhibition at 50 µM in experiment [1] is 39%; in experiment [2], 19%; in experiment [3], 20%. The half-inhibitory concentration (IC50) in experiment [2] stood at 117 µM.
Consider `Cc1ccc2c(C3=C(O)C(=O)C=C(O)C3=O)c[nH]c2c1C` [8B, 2,5-dihydroxy-3-(6,7-dimethyl-1H-indol-3-yl)-[1,4]-benzoquinone], for which the inhibition at 50 µM is 90% in experiment [1], 32% in experiment [2] and 20% in experiment [3]. Besides, the IC50 in experiment [2] was 12.8 µM.
With `O=C1C=C(O)C(=O)C(c2c[nH]c3c2ccc2ccccc23)=C1O` [8C, 2,5-dihydroxy-3-(1H-benzo[g]indol-3-yl)-[1,4]-benzoquinone], the inhibition at 50 µM in experiment [1] was 98%; in experiment [2], 79%; in experiment [3], 75%. Also, the IC50 in experiment [2] is 2.8 µM.
